From the supplement of paper PMC10307832

Tests used:
Assay in all cases: relative viability (nuclei count vs DMSO), 5 days (fraction); higher = more cells survive
[1] = test system: 201T
Outline: (§1)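 A single step with final 0.05% Triton X-100, 1% formaldehyde and 1 ug/ml Hoechst fixed the cells and stained nuclei 5 days after treatment. Lung cancer cell lines in 1536-well plates had been treated by pin tool the day after seeding with one drug alone or a fixed anchor-drug dose plus five library-drug doses (not always all listed) in √10 steps, and nuclei were counted on 4× images. Relative viability is the ratio of nuclei in treated wells to nuclei in vehicle wells, taken as the median of duplicate plates.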

[2] = test system: A-427
Outline: as §1

[3] = test system: ABC-1
Outline: as §1

[4] = test system: BEN
Outline: as §1

[5] = test system: CAL-12T
Outline: as §1

[6] = test system: H3255
Outline: as §1

[7] = test system: LC-2-ad
Outline: as §1

[8] = test system: LCLC-97TM1
Outline: as §1

[9] = test system: NCI-H1650
Outline: as §1

[10] = test system: NCI-H1651
Outline: as §1

[11] = test system: NCI-H1915
Outline: as §1

[12] = test system: NCI-H1944
Outline: as §1

[13] = test system: NCI-H2023
Outline: as §1

[14] = test system: NCI-H2087
Outline: as §1

[15] = test system: NCI-H460
Outline: as §1

[16] = test system: NCI-H520
Outline: as §1

[17] = test system: NCI-H596
Outline: as §1

[18] = test system: NCI-H650
Outline: as §1

[19] = test system: NCI-H661
Outline: as §1

[20] = test system: NCI-H727
Outline: as §1

[21] = test system: PC-3 [JPC-3]
Outline: as §1

Cc1sc2c(c1C)C(c1ccc(Cl)cc1)=N[C@@H](CC(=O)OC(C)(C)C)c1nnc(C)n1-2 [JQ1] + CS(=O)(=O)CCNCc1ccc(-c2ccc3ncnc(Nc4ccc(OCc5cccc(F)c5)c(Cl)c4)c3c2)o1 [Lapatinib] (partner 2 µM)
relative viability ([1]; first compound 0.04 µM): 0.998 | relative viability ([1]; first compound 0.1265 µM): 0.51 | relative viability ([1]; first compound 0.4 µM): 0.974 | relative viability ([1]; first compound 1.265 µM): 0.724 | relative viability ([1]; first compound 4 µM): 0.548 | relative viability ([2]; first compound 0.04 µM): 0.925 | relative viability ([2]; first compound 0.1265 µM): 0.916 | relative viability ([2]; first compound 0.4 µM): 1.08 | relative viability ([2]; first compound 1.265 µM): 1.02 | relative viability ([2]; first compound 4 µM): 0.696 | relative viability ([3]; first compound 0.04 µM): 1.11 | relative viability ([3]; first compound 0.1265 µM): 0.82 | relative viability ([3]; first compound 0.4 µM): 1.04 | relative viability ([3]; first compound 1.265 µM): 0.992 | relative viability ([3]; first compound 4 µM): 0.727 | relative viability ([4]; first compound 0.04 µM): 0.676 | relative viability ([4]; first compound 0.1265 µM): 0.561 | relative viability ([4]; first compound 0.4 µM): 0.427 | relative viability ([4]; first compound 1.265 µM): 0.292 | relative viability ([4]; first compound 4 µM): 0.266 | relative viability ([5]; first compound 0.04 µM): 0.748 | relative viability ([5]; first compound 0.4 µM): 0.541 | relative viability ([5]; first compound 1.265 µM): 0.383 | relative viability ([5]; first compound 4 µM): 0.463 | relative viability ([6]; first compound 0.04 µM): 0.226 | relative viability ([6]; first compound 0.1265 µM): 0.251 | relative viability ([6]; first compound 0.4 µM): 0.248 | relative viability ([6]; first compound 1.265 µM): 0.169 | relative viability ([6]; first compound 4 µM): 0.227 | relative viability ([7]; first compound 0.04 µM): 0.92 | relative viability ([7]; first compound 0.1265 µM): 0.436 | relative viability ([7]; first compound 0.4 µM): 0.409 | relative viability ([7]; first compound 1.265 µM): 0.158 | relative viability ([7]; first compound 4 µM): 0.155 | relative viability ([8]; first compound 0.1265 µM): 0.805 | relative viability ([8]; first compound 0.4 µM): 0.781 | relative viability ([8]; first compound 1.265 µM): 0.243 | relative viability ([8]; first compound 4 µM): 0.252 | relative viability ([9]; first compound 0.04 µM): 0.704 | relative viability ([9]; first compound 0.1265 µM): 0.469 | relative viability ([9]; first compound 0.4 µM): 0.316 | relative viability ([9]; first compound 1.265 µM): 0.204 | relative viability ([9]; first compound 4 µM): 0.253 | relative viability ([10]; first compound 0.04 µM): 0.656 | relative viability ([10]; first compound 0.1265 µM): 0.706 | relative viability ([10]; first compound 0.4 µM): 0.481 | relative viability ([10]; first compound 1.265 µM): 0.365 | relative viability ([10]; first compound 4 µM): 0.408 | relative viability ([11]; first compound 0.04 µM): 0.976 | relative viability ([11]; first compound 0.1265 µM): 0.574 | relative viability ([11]; first compound 0.4 µM): 0.917 | relative viability ([11]; first compound 1.265 µM): 0.582 | relative viability ([11]; first compound 4 µM): 0.315 | relative viability ([12]; first compound 0.04 µM): 0.79 | relative viability ([12]; first compound 0.1265 µM): 0.543 | relative viability ([12]; first compound 0.4 µM): 0.614 | relative viability ([12]; first compound 1.265 µM): 0.584 | relative viability ([12]; first compound 4 µM): 0.454 | relative viability ([13]; first compound 0.04 µM): 0.738 | relative viability ([13]; first compound 0.1265 µM): 0.463 | relative viability ([13]; first compound 0.4 µM): 0.443 | relative viability ([13]; first compound 1.265 µM): 0.334 | relative viability ([13]; first compound 4 µM): 0.258 | relative viability ([14]; first compound 0.04 µM): 1.12 | relative viability ([14]; first compound 0.4 µM): 0.904 | relative viability ([14]; first compound 1.265 µM): 0.786 | relative viability ([14]; first compound 4 µM): 0.506 | relative viability ([15]; first compound 0.04 µM): 0.887 | relative viability ([15]; first compound 0.1265 µM): 0.465 | relative viability ([15]; first compound 0.4 µM): 0.536 | relative viability ([15]; first compound 1.265 µM): 0.217 | relative viability ([15]; first compound 4 µM): 0.169 | relative viability ([16]; first compound 0.04 µM): 0.874 | relative viability ([16]; first compound 0.1265 µM): 0.895 | relative viability ([16]; first compound 0.4 µM): 0.716 | relative viability ([16]; first compound 1.265 µM): 0.264 | relative viability ([16]; first compound 4 µM): 0.243 | relative viability ([17]; first compound 0.04 µM): 1.07 | relative viability ([17]; first compound 0.1265 µM): 0.956 | relative viability ([17]; first compound 0.4 µM): 0.887 | relative viability ([17]; first compound 1.265 µM): 0.546 | relative viability ([17]; first compound 4 µM): 0.415 | relative viability ([18]; first compound 0.04 µM): 0.959 | relative viability ([18]; first compound 0.1265 µM): 0.527 | relative viability ([18]; first compound 0.4 µM): 0.647 | relative viability ([18]; first compound 1.265 µM): 0.259 | relative viability ([18]; first compound 4 µM): 0.295 | relative viability ([19]; first compound 0.04 µM): 0.402 | relative viability ([19]; first compound 0.1265 µM): 0.527 | relative viability ([19]; first compound 0.4 µM): 0.339 | relative viability ([19]; first compound 1.265 µM): 0.27 | relative viability ([19]; first compound 4 µM): 0.321 | relative viability ([20]; first compound 0.04 µM): 0.727 | relative viability ([20]; first compound 0.1265 µM): 0.695 | relative viability ([20]; first compound 0.4 µM): 0.506 | relative viability ([20]; first compound 1.265 µM): 0.361 | relative viability ([20]; first compound 4 µM): 0.469 | relative viability ([21]; first compound 0.04 µM): 0.488 | relative viability ([21]; first compound 0.1265 µM): 0.529 | relative viability ([21]; first compound 0.4 µM): 0.432 | relative viability ([21]; first compound 1.265 µM): 0.412 | relative viability ([21]; first compound 4 µM): 0.411
